{
  "source": "paper PMC10980263",
  "about": "“Cryo-EM structures of the human NaS1 and NaDC1 transporters revealed the elevator transport and allosteric regulation mechanism” (Science Advances, 2024)",
  "key": {"NaDC1 [1]": {"target": "T1, NaDC1 (Homo sapiens, UniProt Q13183, I550V)", "T1 construct": "gene SLC13A2; full length, homodimer; N-terminal FLAG purified from HEK293F (structures, natural variant I550V); GFP and FLAG tagged in HEK293T for currents", "T1 sequence (Q13183 1-592 I550V)": "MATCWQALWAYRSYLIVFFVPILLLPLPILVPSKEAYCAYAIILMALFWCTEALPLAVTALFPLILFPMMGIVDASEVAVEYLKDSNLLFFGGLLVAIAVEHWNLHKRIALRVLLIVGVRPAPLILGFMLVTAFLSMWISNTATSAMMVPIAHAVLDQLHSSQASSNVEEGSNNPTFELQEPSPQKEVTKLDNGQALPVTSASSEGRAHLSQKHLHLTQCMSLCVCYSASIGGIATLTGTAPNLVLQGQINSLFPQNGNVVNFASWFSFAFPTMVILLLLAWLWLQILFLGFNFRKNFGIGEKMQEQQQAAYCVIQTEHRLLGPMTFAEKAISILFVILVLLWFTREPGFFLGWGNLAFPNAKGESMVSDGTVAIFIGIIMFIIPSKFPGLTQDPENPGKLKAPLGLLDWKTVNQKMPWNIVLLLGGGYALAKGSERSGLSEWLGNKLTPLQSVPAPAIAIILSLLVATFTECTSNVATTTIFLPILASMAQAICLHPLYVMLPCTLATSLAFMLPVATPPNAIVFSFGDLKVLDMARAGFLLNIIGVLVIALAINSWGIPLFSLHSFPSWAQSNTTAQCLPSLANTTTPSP", "experiment": "cryo-EM structure ([…] Å)", "type": "binding", "settings": "400 μM ACA; allosteric site of TM2, L10, TM11, TM6a"}, "NaDC1 [2]": {"target": "T2, NaDC1 (Homo sapiens, UniProt Q13183)", "T2 sequence (Q13183 1-592)": "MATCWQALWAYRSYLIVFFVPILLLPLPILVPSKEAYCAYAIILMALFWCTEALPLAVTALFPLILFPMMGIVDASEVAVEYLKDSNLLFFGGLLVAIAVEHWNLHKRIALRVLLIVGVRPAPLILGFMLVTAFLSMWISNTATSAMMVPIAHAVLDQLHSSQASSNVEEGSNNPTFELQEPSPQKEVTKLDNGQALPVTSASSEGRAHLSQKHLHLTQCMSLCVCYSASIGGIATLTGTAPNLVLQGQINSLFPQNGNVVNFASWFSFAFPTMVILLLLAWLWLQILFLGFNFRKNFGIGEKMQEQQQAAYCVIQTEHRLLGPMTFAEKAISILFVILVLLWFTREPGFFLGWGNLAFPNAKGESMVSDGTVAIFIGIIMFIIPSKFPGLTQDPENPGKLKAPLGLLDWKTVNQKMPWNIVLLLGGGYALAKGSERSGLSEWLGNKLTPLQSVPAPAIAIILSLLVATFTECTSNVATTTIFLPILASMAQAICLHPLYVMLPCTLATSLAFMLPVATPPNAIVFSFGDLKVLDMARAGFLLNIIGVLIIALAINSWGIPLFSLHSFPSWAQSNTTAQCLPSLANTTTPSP", "experiment": "whole-cell patch clamp, transfected HEK293T", "type": "cell-based", "set-up": "gene SLC13A2; full length, homodimer; GFP and FLAG tagged in HEK293T for currents", "settings": "citrate-induced current; reversible on washout"}, "NaS1": {"target": "T3, NaS1 (Homo sapiens, UniProt Q9BZW2)", "T3 construct": "gene SLC13A1; full length, N-terminal FLAG tag, HEK293F membranes, purified in GDN, homodimer", "T3 sequence (Q9BZW2 1-595)": "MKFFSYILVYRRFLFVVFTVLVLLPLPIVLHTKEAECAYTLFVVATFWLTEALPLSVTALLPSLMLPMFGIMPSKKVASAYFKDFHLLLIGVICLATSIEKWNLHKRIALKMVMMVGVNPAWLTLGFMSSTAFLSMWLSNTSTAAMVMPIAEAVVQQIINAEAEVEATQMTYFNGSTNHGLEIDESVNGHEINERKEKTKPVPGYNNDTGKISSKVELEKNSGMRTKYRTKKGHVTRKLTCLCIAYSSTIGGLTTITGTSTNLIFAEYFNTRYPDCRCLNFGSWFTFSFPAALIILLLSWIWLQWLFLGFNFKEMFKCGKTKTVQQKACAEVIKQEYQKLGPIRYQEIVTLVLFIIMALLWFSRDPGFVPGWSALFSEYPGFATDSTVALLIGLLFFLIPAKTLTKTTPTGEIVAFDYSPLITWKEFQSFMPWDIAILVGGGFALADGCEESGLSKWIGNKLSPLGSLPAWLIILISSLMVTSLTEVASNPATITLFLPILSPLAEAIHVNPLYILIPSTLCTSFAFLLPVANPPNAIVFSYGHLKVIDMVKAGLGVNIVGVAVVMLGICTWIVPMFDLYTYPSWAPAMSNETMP", "experiment": "cryo-EM structure (IN/IN […] Å, IN/OUT […] Å)", "type": "binding", "settings": "substrate site; Na+ bound at Na1 in IN/IN"}, "[3]": {"target": "the molecule itself", "experiment": "cryo-EM structure; single-particle cryo-EM of purified NaS1 in 25 mM tris pH 8.0, 150 mM NaCl, 0.01% GDN; apo and sulfate-bound; IN/IN and IN/OUT dimers"}, "[4]": {"target": "the molecule itself", "experiment": "cryo-EM structure; single-particle cryo-EM of purified NaDC1 in 20 mM Hepes pH 7.4, 150 mM NaCl, 0.02% GDN; apo, with 10 mM sodium citrate, or with 400 uM ACA; OUT/OUT dimer"}},
  "data": [
    {"molecule": "CCCCCc1ccc(/C=C/C(=O)Nc2ccccc2C(=O)O)cc1", "note": "[ACA]", "values": [
      {"measurement": "cryo-EM structure (3.3 Å)", "setting": "NaDC1 [1]", "result": "the cryo-EM structure of NaDC1 bound with ACA was solved"},
      {"measurement": "whole-cell patch clamp, transfected HEK293T", "setting": "NaDC1 [2]", "result": "A significant decrease in citrate-induced current was detected when ACA was added"}
    ]},
    {"molecule": "O=S(=O)(O)O", "note": "[sulfate]", "values": [
      {"measurement": "cryo-EM structure (IN/IN 3.1 Å, IN/OUT 3.2 Å)", "setting": "NaS1", "result": "there is obvious sulfate density around the classical substrate binding pocket of NaS1_sulfate_IN/IN"}
    ]},
    {"molecule": "human NaS1 (SLC13A1), sodium ion-sulfate cotransporter 1 (natural protein, UniProt Q9BZW2 1-595, looked up, full-length human SLC13A1 (NaS1), NP_071889.2, UniProtKB Q9BZW2; No removal of the FLAG tag is described; the protein was captured on anti-FLAG resin and eluted with FLAG peptide; not shown: FLAG, N-terminal, kept) MKFFSYILVYRRFLFVVFTVLVLLPLPIVLHTKEAECAYTLFVVATFWLTEALPLSVTALLPSLMLPMFGIMPSKKVASAYFKDFHLLLIGVICLATSIEKWNLHKRIALKMVMMVGVNPAWLTLGFMSSTAFLSMWLSNTSTAAMVMPIAEAVVQQIINAEAEVEATQMTYFNGSTNHGLEIDESVNGHEINERKEKTKPVPGYNNDTGKISSKVELEKNSGMRTKYRTKKGHVTRKLTCLCIAYSSTIGGLTTITGTSTNLIFAEYFNTRYPDCRCLNFGSWFTFSFPAALIILLLSWIWLQWLFLGFNFKEMFKCGKTKTVQQKACAEVIKQEYQKLGPIRYQEIVTLVLFIIMALLWFSRDPGFVPGWSALFSEYPGFATDSTVALLIGLLFFLIPAKTLTKTTPTGEIVAFDYSPLITWKEFQSFMPWDIAILVGGGFALADGCEESGLSKWIGNKLSPLGSLPAWLIILISSLMVTSLTEVASNPATITLFLPILSPLAEAIHVNPLYILIPSTLCTSFAFLLPVANPPNAIVFSYGHLKVIDMVKAGLGVNIVGVAVVMLGICTWIVPMFDLYTYPSWAPAMSNETMP", "values": [
      {"measurement": "binding result", "setting": "[3]", "result": "binds"}
    ]},
    {"molecule": "human NaDC1 (SLC13A2), sodium ion-dicarboxylate cotransporter 1, natural variant I550V (natural protein, UniProt Q13183-1 1-592, looked up, full-length human SLC13A2 (NaDC1), NP_003975.1, UniProtKB Q13183, with the natural variant I550V that was used to determine the structures; Homodimer in the cryo-EM structures (OUT/OUT; No removal of the FLAG tag is described; the protein was captured on anti-FLAG resin and eluted with FLAG peptide; also called NaDC1_apo; NaDC1_citrate; source: extracted in DDM/CHS, exchanged to GDN); not shown: …) MATCWQALWAYRSYLIVFFVPILLLPLPILVPSKEAYCAYAIILMALFWCTEALPLAVTALFPLILFPMMGIVDASEVAVEYLKDSNLLFFGGLLVAIAVEHWNLHKRIALRVLLIVGVRPAPLILGFMLVTAFLSMWISNTATSAMMVPIAHAVLDQLHSSQASSNVEEGSNNPTFELQEPSPQKEVTKLDNGQALPVTSASSEGRAHLSQKHLHLTQCMSLCVCYSASIGGIATLTGTAPNLVLQGQINSLFPQNGNVVNFASWFSFAFPTMVILLLLAWLWLQILFLGFNFRKNFGIGEKMQEQQQAAYCVIQTEHRLLGPMTFAEKAISILFVILVLLWFTREPGFFLGWGNLAFPNAKGESMVSDGTVAIFIGIIMFIIPSKFPGLTQDPENPGKLKAPLGLLDWKTVNQKMPWNIVLLLGGGYALAKGSERSGLSEWLGNKLTPLQSVPAPAIAIILSLLVATFTECTSNVATTTIFLPILASMAQAICLHPLYVMLPCTLATSLAFMLPVATPPNAIVFSFGDLKVLDMARAGFLLNIIGVLVIALAINSWGIPLFSLHSFPSWAQSNTTAQCLPSLANTTTPSP", "values": [
      {"measurement": "binding result", "setting": "[4]", "result": "binds"}
    ]}
  ]
}
